No end group written: not given here.

One may read the Kd as the equilibrium constant for the complex coming apart. As a reminder, the IC50 is the point on the concentration scale where inhibition reaches its midpoint. The low end stands for higher potency, the high end for lower potency. The Ki is a measure of affinity in units of concentration, obtained from inhibition or displacement.

The test system of assay [1] is JNK on mitochondria of HeLa cells. Format: cell-based.
The test system of assay [2] is JNK phosphorylation in HeLa cells. Nature of the assay: JNK phosphorylation in anisomycin-treated HeLa cells, Western blot. In kind it is cell-based. Particulars: 25µM anisomycin.
Assay [3] relates to c-jun phosphorylation in HeLa cells. Nature of the assay: c-jun phosphorylation in anisomycin-treated HeLa cells, Western blot. Format: cell-based. The following applies: 25µM anisomycin, 0-120 min. (In general: In western blotting, separated proteins are transferred to a membrane and probed.)
Assay [4] relates to HeLa cells. Particulars: 25µM anisomycin, 4 hours.
The subject of assay [5] is HeLa cells. Nature of the assay: Mitochondrial membrane potential, JC-1. In kind it is cell-based.
Assay [6] has as its system HeLa cells. Nature of the assay: Cytochrome c release, ELISA. In kind it is cell-based. Particulars: 25µM anisomycin 4 hours; Tat-SabKIM1 10µM, TI-JIP 1µM, siRNA 50nM.
Assay [7] concerns the target T1, JNK3α1 (Homo sapiens, UniProt P53779). Nature of the assay: Fluorescence polarization assay for peptide binding.
Assay [8] concerns the target T1, JNK3α1. Nature of the assay: Kinase-Glo phosphorylation assay, JNK3α1. In kind it is biochemical. Particulars: 4-parameter nonlinear regression, 30°C, 60 min. (In general: Kinase-Glo measures the ATP left after a reaction by luminescence.)
The target of a further assay is JNK. The following applies: cited from earlier work.
For assay [9], the system named is recombinant JNK1α1 / mitochondria of JNK-null fibroblasts. The arrangement: species or system murine. The following applies: TI-JIP 1µM, Tat-SabKIM1 10µM.
The subject of assay [10] is JNK on mitochondria of HeLa cells. The following applies: N-acetylcysteine; earlier data, ref "Recent data from our lab"; cited from earlier work.
The target in assay [11] is JNK1α1 (active, recombinant) (human) (UniProt P45983).
Assay [12] has as its target T1, JNK3α1.

With `COc1ccc(C[C@H]2NC[C@H](O)[C@H]2OC(C)=O)cc1` [anisomycin], the “phospho-JNK on the mitochondria” value in assay [1] (25µM anisomycin) is “as early as 5 minutes and peaked at 30 minutes”. Besides, in assay [1] (25µM anisomycin stress), the “Sab abundance on the mitochondria” value is reported as “did not have altered abundance”. Also, in assay [1] (25µM anisomycin, Western blot), the “JNK species found on the mitochondria” value is recorded as “only the 54kDa species was found on the mitochondria”. In assay [2] (0-120 min), the “JNK phosphorylation” value was “increased JNK phosphorylation between 15 and 30 minutes, and then JNK phosphorylation decreased after 30 minutes”. In assay [2] (two hour time course), the “total JNK abundance” value is recorded as “unchanged”. In assay [3], the “c-jun levels” value is listed as “remained constant” and the “c-jun phosphorylation on serine 73” value is on record as “increased at 15–30 minutes, peaking at 45–60 min, then decreasing following 60 minutes”. The compound further gave a cell death with HeLa cells [4] of 50%. Further, the decrease in viability in the assay with HeLa cells [4] (vs DMSO-treated cells) is ~ 50%. Also, the “increase in percent depolarized mitochondria” value in the assay with HeLa cells [5] (25µM anisomycin, 45 min, vs DMSO-treated cells) is reported as 40–50%.
On to YGRKKRRQRRRRPKRPTTLNLF-NH2 [Tat-TI-JIP], for which, in [1] (25µM anisomycin 30 min, TI-JIP 1µM, Tat-SabKIM1 10µM), the “Sab expression on mitochondria of HeLa cells with peptide” value was “without impacting Sab expression”. Moreover, the “cytochrome c release from the mitochondria” value with HeLa cells [6] is “capable of reducing cytochrome c release”. At JNK3α1 [7], this compound yielded a Kd of 450 ± 60 nM. The “affinity of JNK3α1 compared to the Sab peptide” value on JNK3α1 [7] (greater affinity for JIP peptide vs Sab peptide, fluorescence polarization) is 25 -fold. Moreover, the IC50 against JNK3α1 [8] (IC50 -vs-Sab, JNK3α1, substrate Sab) was 18 ± 9 nM; against JNK3α1 [8] (IC50 -vs-c-jun, JNK3α1, substrate c-jun), 38 ± 12 nM. On JNK (read-out: Ki, inhibition of JNK activity versus ATF-2, ref [19], [20]), the Ki is 25 nM. Moreover, the “inhibition of JNK catalytic activity with respect to substrate binding” value in the assay on JNK (ref [19]–[21]) was “potent inhibitor”. For the same compound, the “mitochondrial membrane potential (MMP) dissipation” value with HeLa cells [5] (JC-1, 25µM anisomycin 45 min, Tat-SabKIM1 10µM, TI-JIP 1µM, siRNA 50nM) was “decreased the amount of mitochondria with dissipating MMP”. For the same compound, in [9], the “levels of Sab on isolated mitochondria” value is on record as “did not alter the levels of Sab”.
Turning to AVVRPGSLDLR [Sab KIM1 motif], in the assay with JNK (ref [15]), the “inhibition of JNK phosphorylation of c-jun / transcription factors” value was “little, if any impact”.
For `CC(=O)N[C@@H](CS)C(=O)O` [N-acetylcysteine], in assay [10], the “JNK translocation to the mitochondria” value is listed as “inhibits JNK translocation to the mitochondria”.
As for Tat-TI-JIP (peptide), the IC50 of inhibition of JNK1α1 phosphorylation of c-jun (1–79) (Kinase-Glo assay) in assay [11] turned out to be 34 nM. In the assay with JNK3α1 [12], this compound yielded an IC50 of inhibition of JNK3α1 phosphorylation of ATF2 (Kinase-Glo assay) of 27 nM, an IC50 of inhibition of JNK3α1 phosphorylation of Sab protein (Kinase-Glo assay) of 18 nM and an IC50 of inhibition of JNK3α1 phosphorylation of c-jun (Kinase-Glo assay) of 38 nM.
With “Sab KIM1 peptide: Sab KIM1 motif examined earlier as an inhibitor of JNK mediated c-jun phosphorylation (GFESLSVPSPLDLSGPRVVAPPRRRQRRKKRG; not fully specified; retro-inverso configuration; C-terminal amide (-NH2))”, the “impact on c-jun phosphorylation” value with JNK (ref [18]) is “did not impact c-jun phosphorylation”.

The record behind these values is article PMC3158843 (ACS chemical biology, 2011).
